Assays:
Type in all cases: cell-based, mouse
parental MEF population = test: Growth of the parental MEF population; conditions: 1.25 mM 2-DG, 100 μM BrPA, 5 mM DCA
[1] = tested on: MEFs undergoing nuclear reprogramming; test: Reprogramming efficiency by FACS analysis of SSEA-1 expression; conditions: vehicle 27.8±3.1, mean±SEM, n=3
Text: (§1) Mouse embryonic fibroblasts (MEFs) were transduced with HIV-based viral vectors encoding OCT3/4, SOX2, and KLF4 either in the presence (4F) or absence of c-MYC (3F) to produce iPS clones that met pluripotent criteria including expression of stem cell markers, embryoid body differentiation, teratoma formation, diploid aggregation, and contribution to organogenesis (Martinez-Fernandez et al., Circ. Res., 105:648-656 (2009); Nelson et al., Clin. Transl. Sci., 2:118-126 (2009); and Nelson et al., Circulation, 120:408-416 (2009)). Alternatively, iPS cells were derived with a viPS (Open Biosystems) kit. iPS cells were induced and maintained in ES Cell qualified DMEM supplemented with 15% FBS, 25 mM glucose, 2 mM Glutamax (Invitrogen), and 1 mM sodium pyruvate. In reprogramming experiments, media was supplemented with 0.25 or 1.25 mM 2DG (Sigma), 100 μM BrPA (Sigma) or 5 mM DCA (Sigma). Reprogramming efficiency was quantified using an alkaline phosphatase staining kit (Stemgent) or FACS analysis of SSEA-1 expression (Millipore) on a LSR II flow cytometer.

MEFs = test: 1H NMR metabolomic footprinting of extracellular metabolites of treated MEFs; conditions: control experiments; 1.25 mM 2-DG, 100 μM BrPA, 5 mM DCA versus vehicle; n=3
Protocol: For footprinting of extracellular metabolites, 540 μL of media collected following 24 hours of culture was added to 60 μL of D2O (Sigma) containing 5 mM sodium 3-(trimethylsilyl)propionate-2,2,3,3-d4 (TSP) (Sigma) for chemical shift reference and 81.84 mM formate (Sigma) for peak quantification reference as described elsewhere (Turner et al., Stem Cells, 26:1547-1555 (2008)). Briefly, MEFs, iPS cells, and R1ESC were maintained in DMEM containing 15% FBS, pyruvate, L-glutamine, nonessential amino acids, 2-mercaptoethanol, and LIF in 6 well plates at 37° C. in a humidified incubator with 95% air and 5% CO2 (Martinez-Fernandez et al., Circ Res., 25; 105(7):648-56 (2009)). […]
For intracellular metabolite fingerprinting, neutralized perchloric acid extracts were concentrated with a SpeedVac and suspended in 600 μL of 100 mM phosphate buffer (pH 7.0) in D2O (Sigma) containing 0.5 mM TSP as described elsewhere (Beckonert et al., Nat. Protoc., 2:2692-2703 (2007)). […] Following Fourier transformation, spectra were autophased with metabonomic phase correction, baseline corrected using a Bernstein polynomial fit and referenced to the TSP peak (0.00 ppm) using MestReNova 5.3.2 (MestRelab Research). p-toluenesulfonic acid (Sigma) was utilized as a reference standard to calibrate the formate concentration for quantitative analysis (Shao et al., J. Chromatogr. A, 1138:305-308 (2007)). […]

[2] = tested on: MEFs undergoing nuclear reprogramming; test: Reprogramming efficiency by alkaline phosphatase staining; conditions: 2-DG during reprogramming (media supplemented with 0.25 or 1.25 mM 2DG)
Text: as §1

Row | Compound | Cell growth of parental MEF population (parental MEF population) | % SSEA1 positive cells (reprogramming efficiency) ([1]; 5 mM DCA during reprogramming) | Extracellular metabolite profile of treated MEFs (MEFs) | Induction of the pluripotent marker alkaline phosphatase [2] | % SSEA1 positive cells (reprogramming efficiency) ([1]; 1.25 mM 2-DG during reprogramming) | % SSEA1 positive cells (reprogramming efficiency) ([1]; 100 μM BrPA during reprogramming)
1 | O=C(O)C(Cl)Cl [DCA, dichloroacetate] | without impairing cell growth | 17.3±1.5 % SSEA1 positive cells |  |  |  | 
2 | O=CC[C@@H](O)[C@H](O)[C@H](O)CO [2-DG, 2-deoxyglucose] | without impairing cell growth |  | consistent with inhibition of glycolysis and stimulation of oxidative metabolism | blunted induction of the pluripotent marker alkaline phosphatase | 0.9±0.3 % SSEA1 positive cells | 
3 | O=C(O)C(=O)CBr [BrPA, 3-bromopyruvic acid] | without impairing cell growth |  | consistent with inhibition of glycolysis and stimulation of oxidative metabolism |  |  | 19.8±1.0 % SSEA1 positive cells
